Test results from patent publication US12042478B2, “(R)-2-[(2H-1,3-benzodioxol-5-yl)methyl]pyrrolidine and processes for preparation, compositions and uses thereof” (Pharmala Biotech Inc., priority 2022, dated 2024).

Columns and labels:
Assay type in all cases: in vivo, mouse
C57 and BTBR mice [1] = assay: Radiotelemetry of core temperature; conditions: for core body temperature change: 5.6 mg/kg IP; for effect on core temperature: 10 mg/kg; for core temperature response, comparison of strains: C57 vs BTBR mice
Protocol: (§1) The radiotelemetry assay was conducted in adult male C57 and BTBR mice (n=6 per group) in a dedicated testing room where ambient light, sound, and human contact were tightly controlled.
(§2) Prior to surgical implantation of radiotelemetry probes, mice received 3 mg/kg meloxicam (IP), and anesthesia was induced with 4% inhaled isoflurane and maintained with 1-3% isoflurane (as needed) throughout the procedure at a flow rate of 1.5 litres/minute. The abdominal area of each animal was treated with depilatory cream, then sanitized with 3 alternating scrubs with iodine and alcohol. A rostral-caudal cut approximately 1.5 cm in length was made with sterile skin scissors, providing access to the intraperitoneal cavity. A cylindrical glass-encapsulated radiotelemetry probe (model ER-4000 E-Mitter, Mini Mitter, Bend, OR, USA) was then inserted. These probes measure 15.5 mm×6.5 mm and weigh approximately 1 gram. Incisions were closed (skin layer and muscle layer separately) using reverse cutting 5-0 Vicryl absorbable sutures for the muscle layer and 5-0 nylon suture material for the skin layer. Surgeries were carried out at least 7 days before initiation of experimental conditions, allowing time for incisions to heal and for animals to recover normal body weights. Following surgery, all implanted mice were individually housed in Plexiglas cages within the telemetry room for the duration of all experiments. Implanted transmitters produce activity- and temperature-modulated signals which are sent to a receiver (model ER-4000 Receiver, Mini Mitter Co., Inc.) underneath each cage. Following use, telemetry probes were removed from carcasses, wiped with alcohol swabs, and stored in the disinfectant solution until re-use.
At least 7 days after surgical implantation of radiotelemetry probes, mice in their individual home cages were placed atop a telemetry energizer/receiver, which powers probes and transmits their data to an interfaced computer. Upon initiation of an experimental session, the computer collects two data updates from the probes at 5 min intervals: core temperature (in ° C.) on one channel, and locomotor counts (in arbitrary units, depending on the relative position of the probe atop the receiver) on the other. After at least 60 minutes of baseline data collection, mice were removed from their cages, injected with saline or a given dose of a specific drug, then returned to the home cage 24 hours of data collection.
Food and water were always freely available in the home cage. Mice were injected with ascending doses of a given drug, with at least 48 hours separating doses. Because there are few studies of drug effects in BTBR mice, the first drug dose tested occasionally elicited unexpectedly large locomotor effects in these animals. In these cases, smaller drug doses were tested next, after a washout period of at least one full day.

C57 and BTBR mice [2] = assay: Compartment entries during social novelty test (proxy for locomotor stimulant effects); conditions: for total entries during social novelty test: relative to saline; for compartment entries during social novelty test, change of stimulation with dose: various doses
Text: (§3) Social preference chambers consisted of two polycarbonate boxes (13.5 cm wide×22.5 cm tall×31.0 cm deep), floored with rough-textured black ABS plastic, and connected to one another by a 1.25″ PVC T-junction. An infrared photobeam emitter/detector array was mounted at each intersection of the T-junction and each preference compartment, and as a mouse traversed the apparatus, it would break the photobeam upon entry to or exit from each preference compartment. Beam breaks started or stopped a counter on an interfaced computer, allowing automated collection of time spent in each compartment. At the end of each test, data were reported as time (in seconds) spent in each compartment, the number of entries into each compartment, and the average time spent in each compartment following an entry. Social preference tests were conducted in an iterative manner, with each test subject completing four distinct phases as described below. Between testing sessions, chambers were sanitized by wiping the insides with a disinfectant product provided by the UAMS Department of Laboratory Animal Medicine. At the end of the week (upon completion of all phases of the procedure), each apparatus was disassembled and all parts were sanitized. No food or water were available during social preference sessions, but were available in the home cage immediately afterwards.
Quantifying total entries into the preference compartments provides a proxy measurement for locomotor stimulant effects of the various doses of the various test drugs. This establishes a limit to the drug doses that can be tested in the social preference procedure, as induction of locomotor stimulant effects confounds preference assessments (because mice stop attending to the social stimuli in each compartment and instead spend their time engaged in locomotor behavior.) Motor activity varies across the distinct phases of social preference testing, in part because the habituation session is twice as long (30 minutes) as the novelty, sociability, and social novelty tests (15 minutes each), but also because mice emit high levels of exploratory behavior in novel environments. Thus, as familiarity with the test apparatus increases over successive exposures to the chambers, the number of entries decreases.
(Note that entries were collected for every test, but drug effects on entries during earlier phases may be less reliable due to the confounding influence of changing familiarity with the apparatus across phases.)

C57 and BTBR mice [3] = assay: Radiotelemetry of home cage locomotor activity; conditions: for locomotor stimulant effects: IP, C57 and BTBR mice
Protocol: as §1, §2
At least 7 days after surgical implantation of radiotelemetry probes, mice in their individual home cages were placed atop a telemetry energizer/receiver, which powers probes and transmits their data to an interfaced computer. […]

C57 and BTBR mice [4] = assay: Social preference procedure: sociability test; conditions: 1 mg/kg IP
Protocol: All drugs were dissolved in physiological 0.9% saline and administered at a constant volume of 1 ml/100 g body weight. Because all drugs utilized in these studies were synthesized as hydrochloride (HCl) salts, they were weighed as salts prior to the preparation of all solutions. All drugs at all concentrations are readily dissolved in an aqueous solution at normal pH. Injections of all drugs were administered intraperitoneally (IP) to mimic pharmacokinetic parameters typical of oral administration, without the behaviour-impairing effects of gavage stress.
This assay was conducted in adult male C57 and BTBR mice (n=6 per group) in a dedicated conditioning room where ambient light, sound, and human contact were tightly controlled.
as §3
A single sociability session occurred the day after the novelty preference test, where one compartment contained a wire mesh cup with a dummy mouse inside while the other compartment contained a male NIH Swiss stranger mouse inside the previously empty cup (see FIG. 4). […] The position of the dummy mouse (left or right compartment) remained the same for each subject as during the novelty test the day before, thereby counterbalancing the position of the stranger mouse across subjects. NIH Swiss stranger mice were similar in mass and appearance to the dummy PVC mice, and were housed separately from the experimental subjects (C57 and BTBR mice) in the colony facility. The first time the experimental subjects ever encountered the stranger mice was when they entered the compartment where they were contained. During this session, mice were weighed, administered the same injection as the day before, and returned to their home cage for a 30 min pretreatment period. Mice were then introduced into the T-junction and allowed to explore both preference compartments for 15 minutes. Sociability tests always occurred on Wednesdays or Thursdays to prevent any weekend testing.

c1cc2c(cc1C[C@H]1CCCN1)OCO2 [(R)-I, (R)-2-[(2H-1,3-benzodioxol-5-yl)methyl]pyrrolidine]
core body temperature change (C57 and BTBR mice [1]; either mouse strain): did not elicit a rise or drop in core body temperature
effect on core temperature (C57 and BTBR mice [1]; C57 and BTBR mice): hypothermic effect
core temperature response, comparison of strains (C57 and BTBR mice [1]; IP): more acute response in C57 mice
rise in core body temperature (C57 and BTBR mice [1]; IP, any of the doses tested, C57 and BTBR mice): did not result in a rise in core body temperature
dose at which hypothermic effects are noted (C57 and BTBR mice [1]; IP, both strains): ≥ 10 mg/kg
hypothermic effects after injection (C57 and BTBR mice [1]; IP, both strains, greater in C57 at 10, 18, 30 and 56 mg/kg): dose-dependent hypothermic effects
total entries during social novelty test (C57 and BTBR mice [2]; 1 mg/kg, C57 mice): only slightly increased
locomotor effect (C57 and BTBR mice [3]; 56 mg/kg i.p., BTBR mice, significantly different from saline): locomotor effect stronger than C57 mice at the same dose
locomotor stimulant effects (C57 and BTBR mice [3]; doses as high as 30 mg/kg): did not have significant locomotor stimulant effects
sociability (time spent with stranger mouse) (C57 and BTBR mice [4]; BTBR mice): minor increase in the sociability response
sociability (time spent with stranger mouse) (C57 and BTBR mice [4]; C57 mice): no impact

c1cc2c(cc1C[C@@H]1CCCN1)OCO2 [(S)-I, (S)-2-[(2H-1,3-benzodioxol-5-yl)methyl]pyrrolidine]
core body temperature change (C57 and BTBR mice [1]; C57 mice): significant drop in temperature
effect on core temperature (C57 and BTBR mice [1]; C57 and BTBR mice): hypothermic effect
core temperature response, comparison of strains (C57 and BTBR mice [1]; IP): more acute response in C57 mice
compartment entries during social novelty test (stimulation) (C57 and BTBR mice [2]; 1 mg/kg, BTBR mice, compared to (R)-I, racemic MDMA and saline): substantially stimulated
total entries during social novelty test (C57 and BTBR mice [2]; 1 mg/kg, C57 mice): only slightly increased
compartment entries during social novelty test, change of stimulation with dose (C57 and BTBR mice [2]; BTBR mice): increase with increasing dose
compartment entries during social novelty test, change of stimulation with dose (C57 and BTBR mice [2]; C57 mice): reverses
locomotor stimulant effects (C57 and BTBR mice [3]; any dose tested): neither strain exhibited locomotor stimulant effects
sociability (time spent with stranger mouse) (C57 and BTBR mice [4]; BTBR mice): strong response in sociability
sociability (time spent with stranger mouse) (C57 and BTBR mice [4]; C57 mice): slight increase in time spent with the stranger mouse
